Here are results for 3 compounds from patent US7629382B2, “Use of tellurium containing compounds as nerve protecting agents” (BioMAS Ltd., priority 2003, dated 2009).

For one data set, the system named is p21waf. Put plainly: p21waf protein expression in PC12 cells (Western blotting). It counts as cell-based. The settings on record: for effect of pretreatment on p21waf protein expression induced by AS101: PC12 cells pretreated before AS101. How it is done: PC12 cells were washed in serum-free medium, resuspended to 1-5×10^6cells/ml. After 24 hours of incubation at 37° C. in culture, the cells were supplemented with 3 ml of medium (RPMI 1640 containing 10% FCS, 2% glutamine and 1 mg/ml G418 (Life Technologies, Inc.). After another 24 hours, cells were resuspended and maintained in the selection medium. After 3-4 weeks in selective medium, transfected cells were analyzed for via Western blotting. Results are expressed as percent p21 as compared to the negative (no drug) control.
PC12 cell extracts (20 μg/lane of protein) boiled under reducing conditions, were subjected to electrophoresis on 7.5 and 12.5% polyacrylamide gels and electro-transferred to nitrocellulose membranes. The membrane was blocked for one hour with 10% powdered milk in 0.2% Tween 20, Tris-buffered saline, and then incubated with the appropriate specific detecting antibodies. Immunoreactive proteins were detected with horseradish peroxidase-conjugated secondary antibodies (Amersham, Arlington Heights, Ill.) and a chemiluminescence reagent. For immunoprecipitation studies, immune complexes were precipitated with Protein A-Sepharose (Pharmacia) and, following electrophoresis, were blotted with anti-phosphoserine or anti-phosphotyrosine antibodies.

Data set [1] deals with PC12 cells expressing a point mutation of Cys118 of P21ras. The experiment in a line: Neuronal differentiation of PC12 cells expressing Cys118 point mutation of p21ras. It counts as cell-based.
The test system of data set [2] is PC12 cells. Put plainly: Cell cycle distribution of PC12 cells (propidium iodide flow cytometry). Format: cell-based. On the procedure: (§1) To assess the neuroprotective effects of AS101, PC12 cells were maintained in Dulbecco's modified Eagle's medium supplemented with 8% heat inactivated horse serum, 8% heat inactivated fetal bovine serum, glutamine (5 mM) and 50 μg/ml gentamycin at 37° C.
Cell cycle distribution studies were performed as previously described. Cells were trypsinyzed and suspended for 10 minutes at room temperature at 1.106/ml buffer containing lmg/ml RNAse, 1% NP-40, 10 μg/ml propidium iodide and 0.1% sodium citrate. Propidium iodide fluorescence was measured using a FACStar plus flow cytometer equipped with an air-cooled argon laser delivering 15 mW of light at […]. The red fluorescence from 1.104 cells from each sample was collected through a 610 nm bandpass filter.

Data set [3] has as its system PC12 cells expressing the dominant negative form (N17) of ras. Put plainly: Neuronal differentiation of PC12 cells expressing dominant negative ras. Format: cell-based. How it is done:
as §1
The ras Asn-17 gene was then cloned into a mammalian expression vector. Transfection of PC12 cells with the plasmid DNA was performed with the calcium phosphate precipitation technique as described previously.

For data set [4], the system named is PC12 cells. The experiment in a line: Neuronal differentiation of PC12 cells. It counts as cell-based. How it is done:
as §1

Another data set concerns spinal cord injury. The experiment in a line: Rat spinal cord injury model (weight-drop contusion). It counts as in vivo. On the procedure:
Twenty rats were divided into 4 treatment groups (control, AS101 15; 20; 30 μg). Experimental spinal cord injury (SCI) was induced via weight-drop contusion models that result in significant locomotor deficits, including lack of coordination and trunk stability. AS101 was applied topically to the damaged area and rats were treated for 21 days with AS101 administrated i.v. At the end of the first week following SCI, and on days 14 and 21, recovery was determined using Basso, Beattie and Bresnahan (BBB) locomotor scale score.

Data set [5] deals with PC12 cells. The experiment in a line: Detection of apoptosis in PC12 cells (NGF withdrawal). It counts as cell-based. How it is done: as §1
The percentage of cells undergoing apoptosis was quantitatively determined using an Apoptosis Detection kit, on the basis of their ability to bind annexin V and exclude iodide, and also by an in situ cell detection kit incorporating HTC labeling and TUNEL.

A further data set addresses recombinant p21 ras (Homo sapiens, UniProt P01112). The experiment in a line: Activation of recombinant p21ras by GDP/GTP exchange. Format: biochemical. The settings on record: incubated 10 minutes. On the procedure:
AS101 (ammonium trichloro(dioxoethylene-O,O′)tellurate) was incubated with recombinant p21^ras for 10 minutes;
(§2) The effect of AS101 on signaling pathways that are controlled by Ras superfamily GTPases was screened by parallel analysis of the activation of the Ras family GTPases and their effectors (FIG. 1). The primary methods used for studying activation of different Ras superfamily GTPases were: (a) pull down of activated Ras superfamily GTPases from cell lysates, by binding of the specific recombinant purified effector GTPase binding domains to the activated GTP bound form. Subsequent to the pull down of the activated GTPases, the proteins were detected and quantified by western blotting; (b) activation of GTPases effectors such as Raf or RAC, by reporter gene assays; and (c) direct immunoprecipitation kinase assays (FIG. 2).
P21ras was cleaved by cyanogen bromide. This process yielded three fragments, each containing one cysteine residue: fragment 1 containing Cys51 (Mr 7,203); fragment 2 containing Cys60 (Mr 4,540) and fragment 3 containing Cys118 (Mr 6223). To confirm that Cys118 is the molecular target of AS101, a form of p21ras was generated identical to the wild type enzyme except that Cys118 is changed by a Ser residue (referred to as p21rasC118S). […] The stimulation by AS101 of nucleotide exchange on GDP-preloaded p21rasC118S in vitro was determined.

A further data set deals with Erk. The experiment in a line: Kinase assay of immunoprecipitated Erk with myelin basic protein as substrate. It counts as cell-based. Conditions: Jurkat T cells or NIH3T3 cells. On the procedure: NIH3T3 cells were incubated with AS101 for 10 minutes with or without famesyl transferase inhibitor.
Endogenous JNK and erk were immunoprecipitated from cell lysates with specific antibodies and their activities measured by using p^32 ATP and glutathione s-transferase (GST) e-jun or myelin basic protein (MPB) respectively, as the substrate. Samples were run on SDS-polyacrylamide gel electrophoresis gels and subjected to Phosphorlmager analysis.
as §2

Another data set concerns c-raf-1. The experiment in a line: Activation of p21ras downstream effector c-raf-1. Format: cell-based. Conditions: cells incubated with AS101 for 15 minutes.
Description: as §2

For data set [6] the following is noted: rats; intravenous and intramuscular administration; cited from earlier work.

Values joined by “and” are separate entries in the source; they are usually repeats but may differ in a detail not shown here. Identical values can stand only once.

Sequence of recombinant p21 ras (P01112 whole entry, species assumed): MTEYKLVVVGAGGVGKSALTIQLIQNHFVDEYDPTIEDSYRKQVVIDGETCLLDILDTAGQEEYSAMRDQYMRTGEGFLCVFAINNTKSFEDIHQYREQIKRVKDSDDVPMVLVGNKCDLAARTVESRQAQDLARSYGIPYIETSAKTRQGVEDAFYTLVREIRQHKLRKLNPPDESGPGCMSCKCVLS

For `COC(=O)[C@H](CCSC)NC(=O)c1ccc(NC[C@@H](N)CS)cc1-c1ccccc1` [farnesyl transferase inhibitor], the “effect of pretreatment on p21waf protein expression induced by AS101” value in the data set with p21waf is listed as “abolished”.
As for `Cl[TeH]1(Cl)(Cl)OCCO1` [AS101, ammonium trichloro(dioxyethylene-O,O′)tellurate], in data set [1], the cellular differentiation result is recorded as “did not result in cellular differentiation”. Moreover, the G0/G1 in the data set with PC12 cells [2] (AS101 0.1 μg/ml) came to 39.7%; with PC12 cells [2] (AS101 0.5 μg/ml, 24 hours), 68.1%; with PC12 cells [2] (AS101 1 μg/ml), 67.5%; with PC12 cells [2] (NGF + anti NGF Ab + AS101), 68%. The G2/M with PC12 cells [2] (AS101 0.1 μg/ml) amounted to 16.4%; with PC12 cells [2] (AS101 0.5 μg/ml), 27.9%; in the data set with PC12 cells [2] (AS101 1 μg/ml), 29%; in the data set on PC12 cells [2] (NGF + anti NGF Ab + AS101), 27.6%. For the same compound, the S with PC12 cells [2] (AS101 0.1 μg/ml) is given as 43.9%; with PC12 cells [2] (AS101 0.5 μg/ml), 4.0%; with PC12 cells [2] (AS101 1 μg/ml), 3.5%; with PC12 cells [2] (NGF + anti NGF Ab + AS101) it was 4.4%. The differentiation result in [3] is “did not result in their differentiation”. In addition, the neuronal differentiation entry in the data set with PC12 cells [4] is listed as “induced neuronal differentiation in a dose-dependent manner”. Besides, the “optimal doses for inducing neuronal differentiation” value with PC12 cells [4] is 0.5 µg/mL and 1 µg/mL. Further, the “reduction in body weight following injury” value in the data set on spinal cord injury was “attenuated”. The mortality result in the data set on spinal cord injury (20 μg AS101 group, two deaths in control group) is recorded as “no mortality”; with spinal cord injury (30 μg AS101 group, two deaths in control group), “no mortality”. The “tolerability / adverse side effects” value in the data set with spinal cord injury (administration after spinal cord injury) is reported as “well tolerated”. The “BBB locomotor scale score (functional recovery)” value with spinal cord injury (high dose AS101, repeated administration, control 1±1.7) was 3±2. In addition, in the data set on spinal cord injury (low dose group, two deaths in control group), the deaths entry was “one”. In addition, the “therapeutic effect during second and third weeks of treatment” value in the data set with spinal cord injury (second and third weeks) is listed as “no beneficial effect”. For the same compound, the Apoptotic was determined as 8.8% with PC12 cells [5] (AS101 0.1 μg/ml), 5.3% in the data set with PC12 cells [5] (AS101 0.5 μg/ml) and 6.6% in the data set on PC12 cells [5] (AS101 1 μg/ml). In addition, the “binding to and activation of p21 ras via GDP/GTP exchange” value on recombinant p21 ras is “directly binds to recombinant p21 ras and activates it via GDP/GTP exchange”. The “activation of ras and downstream effector Erk” value in the data set on Erk is “activated ras and its downstream effector, Erk”. The p21waf protein expression entry with p21waf (PC12 cells, 24 h, dose-dependent) was “pronounced increase”. Moreover, in the data set with c-raf-1, the “activation of c-raf-1” value was “could activate”. Further, in [6], the “LD50 relative to immunologically effective dose” value was 500-1000 folds.
Regarding `COc1cccc(-c2cc(=O)c3ccccc3o2)c1N` [PD98059], in the data set on p21waf, the “effect of pretreatment on p21waf protein expression induced by AS101” value is reported as “abolished”.
